Laboratory results as given in paper PMC7363839, “A Peptide-Based PD1 Antagonist Enhances T-Cell Priming and Efficacy of a Prophylactic Malaria Vaccine and Promotes Survival in a Lethal Malaria Model” (Frontiers in Immunology, 2020).

Tested on: P. yoelii 17 XNL sporozoites
Experiment: P. yoelii 17 XNL sporozoite challenge of AdPyCS-immunized mice
Type: in vivo, BALB/c mice
Conditions: suboptimal AdPyCS IM; 200 μg IP days 1, 3, 5, 7; challenge day 12 with 100 sporozoites IV; AdPyCS alone 4.8 ± 0.6 days
Procedure: Sporozoite challenge experiments were performed, as described previously ([32]). Briefly, immunized mice were administered 100 live P. yoelii 17 XNL sporozoites IV via the tail vein. Parasitemia was monitored from days 3 to 10 after sporozoite challenge by detecting the presence of parasitized red blood cells in thin blood smears to assess complete protection against malaria. Briefly, a drop of blood was collected from the mouse tail vein for thin blood smears on pre-cleaned glass slides. Thin blood smears were fixed with absolute methanol and then stained with diluted Giemsa stain (1:20, v/v) (Sigma-Aldrich, St. Louis, MO) for 10 min. […]
Figure 2 LD01 increases antigen-specific CD8^+ T cell numbers following AdPyCS vaccination. (A) At day 12 post-AdPyCS immunization, immunogenicity was assessed by measuring the number of splenic PyCS-specific, IFN-γ-secreting CD8^+ T cells using the ELISpot assay after stimulation with the H-2kd restricted CD8 epitope SYVPSAEQI. Data are expressed as the mean ± SD. […] Significant differences between AdPyCS + control peptide and treated mice were determined using a one-way ANOVA multiple comparisons test and are denoted by *p < 0.05 and **p < 0.005. […] Data represent two independent experiments (n = 10/group/experiment) and are expressed as the mean percent protection. […]

OVA323−339 (KISQAVHAAHAEINEAG; UniProt P01012 323-339, looked up, fragment) [control peptide, control peptide used in AdPyCS vaccine studies]
time of patency: 4.7 ± 0.7 days
